Legend:
[1] = system: HCV replicon RNA-containing Huh7 cells (clone A cells); assay: HCV replicon assay; type: cell-based; conditions: for Replicon assay result in combination with compound 1: synergism: assayed in combination with compound 1
Description: HCV replicon assay. HCV replicon RNA-containing Huh7 cells (clone A cells; Apath, LLC, St. Louis, Mo.) were kept at exponential growth in Dulbecco's modified Eagle's medium (high glucose) containing 10% fetal bovine serum, 4 mM L-glutamine and 1 mM sodium pyruvate, 1× nonessential amino acids, and G418 (1,000 μg/ml). Antiviral assays were performed in the same medium without G418. Cells were seeded in a 96-well plate at 1,500 cells per well, and test compounds were added immediately after seeding. Incubation time 4 days. At the end of the incubation step, total cellular RNA was isolated (RNeasy 96 kit; Qiagen). Replicon RNA and an internal control (TaqMan rRNA control reagents; Applied Biosystems) were amplified in a single-step multiplex RT-PCR protocol as recommended by the manufacturer.
To express the antiviral effectiveness of a compound, the threshold RT-PCR cycle of the test compound was subtracted from the average threshold RT-PCR cycle of the no-drug control (ΔCtHCV). A ΔCt of 3.3 equals a 1-log 10 reduction (equal to the 90% effective concentration [EC90]) in replicon RNA levels. The cytotoxicity of the test compound could also be expressed by calculating the ΔCtrRNA values. The ΔΔCt specificity parameter could then be introduced (ΔCtHCV−ΔCtrRNA), in which the levels of HCV RNA are normalized for the rRNA levels and calibrated against the no-drug control. Compound 1 was tested for its biological properties based on the preceding assay.

[2] = GVS analysis (hygroscopicity); type: physicochemical

CC(C)(C)OC(=O)N[C@H]1CCCCC/C=C\[C@@H]2C[C@@]2(C(=O)NS(=O)(=O)C2CC2)NC(=O)[C@@H]2C[C@@H](OC(=O)N3Cc4cccc(F)c4C3)CN2C1=O [ITMN-191]
Replicon assay result in combination with compound 1: synergism [1]: synergism

COc1nc(N)nc2c1ncn2[C@@H]1O[C@H](CO[P@@](=O)(N[C@@H](C)C(=O)OC(C)C)Oc2ccccc2)[C@@H](O)[C@@]1(C)F [Compound 1, SP-(2S)-isopropyl 2-(((((2R,3R,4R,5R)-5-(2-amino-6-methoxy-9H-purin-9-yl)-4-fluoro-3-hydroxy-4-methyltetrahydrofuran-2-yl)methoxy)(phenoxy)phosphoryl)amino)propanoate]
EC90 ([1]; Hepatitis C virus, Huh-7, 96 h, clone A cells, incubation time 4 days, replicon RNA by RT-PCR, 1-log 10 reduction, read-out: CloneA EC90): 0.02 µM

COc1nc(N)nc2c1ncn2[C@@H]1O[C@H](CO[P@@](=O)(N[C@@H](C)C(=O)OC(C)C)Oc2ccccc2)[C@@H](O)[C@@]1(C)F.O [Compound 1.H2O, (S)-2-{(S)-[(1R,4R,5R)-5-(2-Amino-6-methoxy-purin-9-yl)-4-(R)-fluoro-3-hydroxy-4-methyl-tetrahydro-furan-2-ylmethoxy]-phenoxy-phosphorylamino}-propionic acid isopropyl ester monohydrate]
GVS hygroscopicity [2]: very low hygroscopicity | GVS reversible weight gain ([2]; at 90% RH): 0.47 % w/w

CC(C)OC(=O)[C@H](C)N[P@](=O)(OC[C@H]1O[C@@H](n2ccc(=O)[nH]c2=O)[C@](C)(F)[C@@H]1O)Oc1ccccc1 [compound E]
Replicon assay result in combination with compound 1: synergism [1]: synergism

Reference: US8563530B2, “Purine nucleoside phosphoramidate” (Gilead Pharmassel LLC, priority 2010, dated 2013)
